In patent publication US20250368652A1, “MICROBIOCIDAL BICYCLIC HETEROCYCLIC CARBOXAMIDE DERIVATIVES” (SYNGENTA CROP PROTECTION AG, priority 2022, published 2025):

Assays:
[1] = tested on: Glomerella lagenarium (Colletotrichum lagenarium); experiment: Glomerella lagenarium (Colletotrichum lagenarium) / liquid culture (anthracnose); assay type: cell-based; settings: Colletotrichum orbiculare, liquid culture (PDB), growth inhibition photometrically 3-4 days after application, compared to untreated control
Procedure: (§1) Mycelia fragments or conidia suspensions of a fungus prepared either freshly from liquid cultures of the fungus or from cryogenic storage, are directly mixed into nutrient broth. DMSO solutions of the test compound (max. 10 mg/mL) are diluted with 0.025% Tween20 by a factor of 50 and 10 μL of this solution is pipetted into a microtiter plate (96-well format). The nutrient broth containing the fungal spores/mycelia fragments is then added to give an end concentration of the tested compound. The test plates are incubated in the dark at 24° C. and 96% relative humidity. The inhibition of fungal growth is determined photometrically after 2 to 7 days, depending on the pathosystem, and percent antifungal activity relative to the untreated check is calculated. Conidia of the fungus from cryogenic storage are directly mixed into nutrient broth (PDB potato dextrose broth). After placing a (DMSO) solution of test compound into a microtiter plate (96-well format), the nutrient broth containing the fungal spores is added. The test plates are incubated at 24° C. and the inhibition of growth is measured photometrically 3-4 days after application.

[2] = tested on: Botryotinia fuckeliana (Botrytis cinerea); experiment: Botryotinia fuckeliana (Botrytis cinerea) / liquid culture (gray mould); assay type: cell-based; settings: liquid culture (Vogels broth), growth inhibition photometrically 3-4 days after application, compared to untreated control
Procedure: as §1, with “(Vogels” for “(PDB potato dextrose”, “determined” for “measured”

Alternaria solani = Alternaria solani / tomato / leaf disc (early blight); assay type: in vivo; settings: 200 ppm; tomato leaf disks cv. Baby, inoculated 2 days after application; compared to untreated control
Procedure: Leaf disks or leaf segments of various plant species are cut from plants grown in a greenhouse. The cut leaf disks or segments are placed in multiwell plates (24-well format) onto water agar. The leaf disks are sprayed with a test solution before (preventative) or after (curative) inoculation. Compounds to be tested are prepared as DMSO solutions (max. 10 mg/mL) which are diluted to the appropriate concentration with 0.025% Tween20 just before spraying. The inoculated leaf disks or segments are incubated under defined conditions (temperature, relative humidity, light, etc.) according to the respective test system. A single evaluation of disease level is carried out 3 to 14 days after inoculation, depending on the pathosystem. Percent disease control relative to the untreated check leaf disks or segments is then calculated. Tomato leaf disks cv. Baby are placed on agar in multiwell plates (24-well format) and sprayed with the formulated test compound diluted in water. The leaf disks are inoculated with a spore suspension of the fungus 2 days after application. The inoculated leaf disks are incubated at 23° C./21° C.

Pyrenophora teres = Pyrenophora teres / barley / leaf disc preventative (net blotch); assay type: in vivo; settings: 200 ppm, barley leaf segments cv. Hasso, inoculated 2 days after application, compared to untreated control

In the case of `Cc1cc2ncc(Oc3cccc(C4CC4)c3)c(C(=O)NCC(F)c3ccc(Cl)cc3Cl)n2n1` (stereo not shown) [Compound P-1.13, 6-(3-cyclopropylphenoxy)-N-[2-(2,4-dichlorophenyl)-2-fluoro-ethyl]-2-methyl-pyrazolo[1,5-a]pyrimidine-7-carboxamide], the inhibition of growth at 20 ppm [1] is reported as no less than 80%, the inhibition of growth at 20 ppm [2] is reported as no less than 80% and the “control of Alternaria solani” value (Alternaria solani) is reported as “at least 80%”. The “control of Pyrenophora teres” value (Pyrenophora teres) was “at least 80%”.
